US6683029B1, “Halopyrimidines” (Bayer Aktiengesellschaft, priority 1999, dated 2004)

Columns and labels:
[1] = logP by HPLC (EEC Directive 79/831 Annex V. A8)
Plutella = Plutella test/synthetic feed; assay type: in vivo; conditions: Plutella larvae on treated synthetic feed; concentration and time not stated
Description: Plutella Test/Synthetic Feed [table] […] A stated amount of the preparation of active compound of the desired concentration is pipetted onto a standardized amount of synthetic feed. After the methanol has evaporated, a film box lid covered with about 100 Plutella eggs is placed onto each cavity. The freshly hatched larvae migrate onto the treated synthetic feed. After the desired period of time, the kill in % is determined. 100% means that all animals have been killed; 0% means that none of the animals have been killed.

CON=C(C(=O)OC)c1ccccc1Oc1ncnc(Oc2cccc(F)c2)c1F [Example 1, Methyl 2-{2-[6-(3-fluorophenoxy)-5-fluoro-pyrimidin-4-yloxy]-phenyl}-2-methoxyiminoacetate]
chromatographic logP [1]: 3.46

CON=C(C(=O)OC)c1ccccc1Oc1ncnc(Oc2cc(Cl)ccc2Cl)c1F [Example 10]
activity (kill) (Plutella): good activity

CCSCc1ccccc1Oc1ncnc(Oc2ccccc2C(=NOC)C(=O)OC)c1F [Example 16]
logP ([1]; HPLC, gradient method, acetonitrile/0.1% aqueous phosphoric acid): 3.97
